Laboratory results published in patent publication US9382230B2, “Methods and compositions for modulating Ire1, SRC and ABL activity” (The Regents of the University of California, priority 2008, dated 2016).

What was measured:
yIre1 [1] = molecular target: T1, yIre1 (Saccharomyces cerevisiae, UniProt P32361); assay: RNA cleavage-based yIre1 activation assay; assay type: biochemical, yeast; parameters: unit not given here; details: 3 μM yIre1, stem loop RNA, 15 μM effector
T1 construct: GST (N); made in house; host or cells: E. coli BL21 CodonPlus (RIPL)
T1 sequence (P32361 with tags, fused parts or gaps limits assumed): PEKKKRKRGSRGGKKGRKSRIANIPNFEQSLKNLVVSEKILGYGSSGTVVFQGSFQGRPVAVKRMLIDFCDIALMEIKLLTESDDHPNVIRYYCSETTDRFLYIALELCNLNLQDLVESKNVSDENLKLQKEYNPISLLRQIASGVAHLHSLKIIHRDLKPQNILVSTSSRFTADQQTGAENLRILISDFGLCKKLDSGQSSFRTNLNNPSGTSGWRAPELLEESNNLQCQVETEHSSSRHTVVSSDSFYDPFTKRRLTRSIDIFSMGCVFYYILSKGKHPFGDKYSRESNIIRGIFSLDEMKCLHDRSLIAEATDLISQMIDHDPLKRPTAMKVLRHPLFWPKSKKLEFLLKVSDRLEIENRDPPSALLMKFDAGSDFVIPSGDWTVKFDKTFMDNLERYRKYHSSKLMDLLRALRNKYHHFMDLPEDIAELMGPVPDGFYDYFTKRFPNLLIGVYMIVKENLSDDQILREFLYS
Experimental: The RNase Cleavage Assay.
(§1) RNA cleavage reactions were conducted at 30° C. in buffer containing 20 mM HEPES (pH 7.5), 70 mM NaCl, 2 mM ADP (pH 7.0), 2 mM Mg(OAc)2, 5 mM DTT, 5% glycerol, less than 1 nM ^32p-labeled RNA substrate, and 3 nM-20 μM Ire1. Reaction solutions and buffers were designed using Biochem Lab Solutions 3.5. Reactions were prepared such that 1 μl of RNA was added to 9 μl of pre-warmed reaction mixture containing all components except RNA. Typically, 3-10 minute time courses were collected starting from 5 seconds for the first time point. At time intervals, 1 μl of solution was withdrawn from each reaction and mixed wish 6 μl stop solution containing 10 M urea, 0.1% SDS, 0.1 mM EDTA, 0.05% xylene cyanol, and 0.05% bromophenol blue. The samples were separated by a denaturing 10% PAGE and exposed on a phosphor storage screen. The screens were scanned on a Storm or a Typhoon instrument and quantified using ImageQuant 5.0 or GelQuant.NET 1.4 programs. The data were plotted and fit in SigmaPlot 6.0.
RNA cleavage can be used to assess yIre1 activation as shown by FIG. 20 and the table below (3 μM yIre1, stem loop RNA, 15 μM effector): […]

yIre1 [2] = molecular target: T1, yIre1; assay: RNA cleavage-based yIre1 inhibition assay with pre-activated purified Ire1; assay type: biochemical, yeast; details: 1.5 μM yIre1, 100 μM ADP-2 mM Mg, 30 μM effector (FIG. 21A)
Experimental: FIGS. 21A and B. A. RNA cleavage-based yIre1 inhibition assay with purified Ire1 under conditions that have pre-activated Ire1. […] Thus, some APY compounds could serve as both Ire1 RNase inhibitors or Ire1 RNase activators, depending on the experimental setting.
as §1, with “RNA cleavage reactions were conducted at 30° C. in buffer containing 20 mM HEPES (pH 7.5), 70 mM NaCl, 2 mM ADP (pH 7.0), 2 mM Mg(OAc)2, 5 mM DTT, 5% glycerol, less than 1 nM ^32p-labeled RNA substrate, and 3 nM-20 μM Ire1.” left out
An RNA cleavage inhibition assay was also performed with exemplary compounds as shown by FIG. 21A (1.5 μM yIre1 mm loop RNA, 100 μM ADP-2 mM Mg, 30 μM effector).

[3] = test system: Xbp-1 mRNA splicing (UPR activation through Ire1) in HEK293 cells; assay: XBP-1 mRNA splicing by RT-PCR in HEK293 cells (UPR); assay type: cell-based, mammalian; details: Hek293 cells treated for 4 hrs, RT-PCR
Experimental: The effect of tunicamycin, SU11248, DJM2005, APY24, and APY29 on Ire1 activity was tested in mammalian cells using HEK293 cells as a model system. Cells were treated according to the methods described in Lin J H et al., Science 318:944 (2007). After treatment with the corresponding agents for the indicated time, Xbp-1 mRNA splicing was determined by RT-PCR. Unspliced (u) and spliced (s) Xbp1-mRNA products are indicated and serve as a measure of UPR activation through Ire1.
Exemplary compounds were assayed for their effect on UPR. Results are set forth in FIGS. 18-19 and in the table below.

Ire1 = assay: Summary statement of Ire1 activation or inhibition (assay not specified)

## Cc1cc(Nc2cc(C3CCCCC3)n[nH]2)nc(Nc2ccc(CC#N)cc2)n1 [APY81]
yIre1 [1]
  RNA cleavage (yIre1 activation): 0.001872
yIre1 [2]
  inhibition of Ire1 RNase: inhibit Ire1
[3]; Tm 0.3 ug/ml + compound 2 μM
  % splicing mRNA XBP-I Average: 7%
[3]; compound 2 μM
  % splicing mRNA XBP-I Average: 11%
[3]; compound 10 μM
  % splicing mRNA XBP-I Average: 16%
Ire1
  inhibition of Ire1: significant inhibition
